Measurements as given in patent US4889861A, “Substituted imidazo[1,5-a]pyridine derivatives and other substituted bicyclic derivatives and their use as aromatase inhibitors” (Ciba-Geigy Corp., priority 1987, dated 1989).

Legend:
aromatase = experiment: in vivo inhibition of aromatase activity: suppression of ovarian estrogen content of PMS-hCG primed female rats; settings: Rattus norvegicus, po
Protocol: Twenty-one-day-old female rats are injected subcutaneously with 10 IU pregnant mare serum gonadotropin (PMS). Two days later the same rats are injected subcutaneously with 30 IU human chorionic gonadrotropin (hCG). On the day following the hCG treatment the rats are injected subcutaneously with either propylene glycol (0.2 ml:p.o.) or with various doses of the test compound. […] Four hours after the injection of androstenedione the rats are killed and their ovaries removed and trimmed free of adhering tissue and stored in pairs at -40° C. To determine the total estrogen content of the ovaries, 1.5 ml of 0.05M aqueous potassium phosphate buffer, pH 7.4, and 0.2 ml of 0.1N aqueous sodium hydroxide are added to the tissues which are then homogenized. The homogenate is extracted with 15 ml of diethyl ether, 5 ml aliquots are radioimmunoassayed with antiserum having 100% cross reactivity with estrone, estradiol and estriol. The results are expressed as ng estrogen/pair of ovaries.

thromboxane synthetase = molecular target: T1, thromboxane synthetase (Homo sapiens, UniProt P24557); experiment: in vitro inhibition of the thromboxane synthetase enzyme (TxB2/PGF2 ratio); type: biochemical; settings: 30 min incubation
T1 construct: crude microsomal preparation of thromboxane synthetase from lysed hyman platelets; from tissue; host or cells: lysed human (printed 'hyman') platelets, crude microsomes
T1 sequence (P24557 1-533): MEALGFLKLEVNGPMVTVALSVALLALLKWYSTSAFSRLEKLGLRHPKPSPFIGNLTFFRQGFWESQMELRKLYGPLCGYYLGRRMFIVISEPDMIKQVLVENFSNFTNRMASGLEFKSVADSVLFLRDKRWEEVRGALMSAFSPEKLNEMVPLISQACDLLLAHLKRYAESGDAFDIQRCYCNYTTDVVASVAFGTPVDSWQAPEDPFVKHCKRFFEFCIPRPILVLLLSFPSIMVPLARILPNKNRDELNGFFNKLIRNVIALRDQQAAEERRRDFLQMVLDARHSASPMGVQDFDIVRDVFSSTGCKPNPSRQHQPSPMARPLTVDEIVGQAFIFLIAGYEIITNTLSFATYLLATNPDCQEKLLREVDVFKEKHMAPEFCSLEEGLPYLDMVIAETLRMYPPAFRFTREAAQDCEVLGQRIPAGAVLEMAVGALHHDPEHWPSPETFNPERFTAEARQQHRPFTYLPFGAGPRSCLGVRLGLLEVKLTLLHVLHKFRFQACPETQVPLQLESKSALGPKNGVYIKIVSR
Protocol: Res. Comm. 74, 1432 (1977); the testing procedure is as follows:
^14 C-arachidonic acid is incubated with an enzyme preparation consisting of solubilized and partially purified prostaglandin cyclo-oxygenase from sheep seminal vesicles and a crude microsomal preparation of thromboxane synthetase from lysed hyman platelets. The test compound (dissolved in buffer, or if necessary, in a small amount of ethanol) is added to the incubation medium. At the end of the incubation period (30 minutes), Prostaglandin E2 (PGE2) is reduced to a mixture of Prostaglandin F2 α and F2 β (PGF2 α+β) by addition of sodium borohydride. The radioactive products and excess substrate are extracted into ethyl acetate; the extract is evaporated to dryness; the residue is dissolved in acetone, spotted on thin-layer plates and chromatographed in the solvent system toluene: acetone: glacial acetic acid (100 volumes: 100 volumes: 3 volumes). The radioactive zones are located; those corresponding to Thromboxane B2 (T×B2) and PGF2 α+β are transferred to liquid scintillation vials and counted. The ratio of counts for T×B2 /PGF2 α+β is calculated for each concentration of test compound and IC50 values are determined graphically as the concentration of test compound at which the ratio of T×B2 /PGF2 α+β is reduced to 50% of the control value.

IC50 (thromboxane synthetase) [µM] | Compound | minimal effective dose (aromatase) [mg/kg]
– | N#Cc1ccc(-c2cccc3cncn23)cc1 [Example 3, 5-(p-Cyanophenyl)imidazo[1,5-a]pyridine] | 0.013
~0.9 | O=C(O)c1ccc(C2CCCc3cncn32)cc1 (stereo not drawn) [Example 9, 5-(p-Carboxyphenyl)-5,6,7,8-tetrahydroimidazo[1,5-a]-pyridine] | –
– | CCOC(=O)CC1CCc2cncn2C1c1ccc(C#N)cc1 (stereo not drawn) [Example 33, 5-(4-cyanophenyl)-6-ethoxycarbonylmethyl-5,6,7,8-tetrahydroimidazo[1,5-a]pyridine] | 0.346
